Test results as given in US8298543B2, “Identification and application of antibiotic synergy” (priority 2005, dated 2012).

What was measured:
[1] = test system: S. aureus engineered with murB antisense; format: cell-based, Staphylococcus aureus
[2] = test system: B. anthracis murB-2 antisense strain

## Cc1onc(-c2c(Cl)cccc2Cl)c1C(=O)N[C@@H]1C(=O)N2[C@@H]1SC(C)(C)[C@@H]2C(=O)O [dicloxacillin]
[1]
  change of potency / sensitivity in presence of inducer: increase in potency

## CO[C@@]1(NC(=O)Cc2cccs2)C(=O)N2C(C(=O)O)=C(COC(N)=O)CS[C@@H]21 [cefoxitin]
[1]
  change of potency / sensitivity in presence of inducer: increase in potency

## CO/N=C(\C(=O)N[C@@H]1C(=O)N2C(C(=O)O)=C(COC(C)=O)CS[C@H]12)c1csc(N)n1 [cefotaxime]
[2]
  IC50 shift (ratio of EC50 with and without xylose): 343
